Earlier results in PMC6462165 (International Journal of Nanomedicine, 2019).

Tested on: endothelial cell proliferation
Details: inhibition of endothelial cell proliferation; cited from earlier work

With IVRRADRAAVP [ES2] as the sequence, how does the “activity relative to the ES sequence” value read?
Its value is “about three times more active than the ES sequence”.
